Legend:
[1] = target: T1, Mcl-1/Bim interaction, recombinant human Mcl-1 (171-327) (Homo sapiens, UniProt Q07820); test: Cell free Mcl-1: Bim Affinity Assay (Mcl-1 HTRF); assay type: binding
T1 construct: made in house
Outline: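 Biotin-Bim(51-76) peptide, TR-FRET readout, overnight incubation; IC50 from duplicate competition curves, 4-parameter fit.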

[2] = test system: OPM-2 human multiple myeloma cell line; test: Cell Viability Assay (OPM-2 10 FBS); assay type: cell-based; conditions: OPM-2 cells, CellTiter-Glo
Outline: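 IC50 from 4-parameter logistic fit of CellTiter-Glo luminescence. 3000 cells/well, 10% FBS medium, serial compound dilutions, 16 h, 37 °C/5% CO2; read 25 min post-reagent.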

[3] = cell free Mcl-1:Bim TR-FRET, recombinant human Mcl-1 (171-327)
[4] = Homo sapiens, OPM-2, 16 h, 16 h
[5] = TR-FRET, 0.1 nM Mcl-1 (171-327), 0.05 nM biotin-Bim (51-76)

T1 sequence (Q07820 171-327): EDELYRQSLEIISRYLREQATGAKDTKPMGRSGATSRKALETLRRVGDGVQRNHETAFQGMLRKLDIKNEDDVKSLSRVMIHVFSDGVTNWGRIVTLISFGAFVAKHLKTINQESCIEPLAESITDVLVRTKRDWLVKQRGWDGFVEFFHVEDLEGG

| IC50 [1, 3] | IC50 [2, 4] | IC50 [1, 5] | SMILES | further results |
| --- | --- | --- | --- | --- |
| 1 nM | 19700 nM | – | O=C1NS(=O)(=O)C/C=C/C2(O)CCOC(C2)C2CCC2CN2CC3(CCCc4cc(Cl)ccc43)COc3ccc1cc32 (single isomer, unassigned) [Example 851] | – |
| 13.8 nM | 912 nM | – | COc1ccc(CNCCO[C@H]2/C=C/C[C@H](C)[C@@H](C)S(=O)(=O)NC(=O)c3ccc4c(c3)N(C[C@@H]3CC[C@H]32)C[C@@]2(CCCc3cc(Cl)ccc32)CO4)c(OC)c1 [Example 777, (1S,3′R,6′R,7′S,8′E,11′S,12′R)-6-chloro-7′-(2-((2,4-dimethoxybenzyl)amino)ethoxy)-11′,12′-dimethyl-3,4-dihydro-2H,15′H-spiro[naphthalene-1,22′-[20]oxa[13]thia[1,14]diazatetracyclo[14.7.2.0^3,6.0^19,24]pentacosa[8,16,18,24]tetraen]-15′-one-13′, 13′-dioxide] | – |
| – | – | 6.15 nM | C[C@@H]1[C@@H](C)C[C@H](CC#N)/C=C/[C@@H]2CC[C@H]2CN2C[C@@]3(CCCc4cc(Cl)ccc43)COc3ccc(cc32)C(=O)NS1(=O)=O [Example 1075, ((1S,3′R,6′S,7′E,9′R,11′S,12′R)-6-chloro-11′,12′-dimethyl-13′,13′-dioxido-15′-oxo-3,4-dihydro-2H-spiro[naphthalene-1,22′-[20]oxa[13]thia[1,14]diazatetracyclo[14.7.2.0^3,6.0^19,24]pentacosa [7,16,18,24]tetraen]-9′-yl)acetonitrile] | IC50 ([2]; Homo sapiens, OPM-2, 16 h, 16 h incubation): 2150 nM |
| – | 399 nM | 0.678 nM | COCCO[C@H]1/C=C\C[C@H](C)NS(=O)(=O)NC(=O)c2ccc3c(c2)N(C[C@@H]2CC[C@H]21)C[C@@]1(CCCc2cc(Cl)ccc21)CO3 (single isomer, unassigned) [Example 64] | – |
| – | 432 nM | 0.467 nM | Cn1cnc(CO[C@H]2/C=C/C[C@H]3CC[C@@H]3S(=O)(=O)NC(=O)c3ccc4c(c3)N(C[C@@H]3CC[C@H]32)C[C@@]2(CCCc3cc(Cl)ccc32)CO4)n1 [Example 94, (1S,3′R,6′R,7′S,8′E,11′R,14′S)-6-chloro-7′-((1-methyl-1H-1,2,4-triazol-3-yl)methoxy)-3,4-dihydro-2H,17′H-spiro[naphthalene-1,24′-[22]oxa[15]thia[1,16]diazapentacyclo[16.7.2.0^3,6.0^11,14.0^21,26]heptacosa[8,18,20,26]tetraen]-17′-one 15′,15′-dioxide] | – |
| 0.188 nM | 141 nM | – | COCC1CC(C)C=CC(O)C2CCC2CN2CC3(CCCc4cc(Cl)ccc43)COc3ccc(cc32)C(=O)NS1(=O)=O (single isomer, unassigned) [Example 471] | – |
| 0.427 nM | 156 nM | – | C[C@@H]1[C@@H](C)C/C=C/[C@H](OCCN2CC(F)C2)[C@@H]2CC[C@H]2CN2C[C@@]3(CCCc4cc(Cl)ccc43)COc3ccc(cc32)C(=O)NS1(=O)=O [Example 532, (1S,3′R,6′R,7′S,8′E,11′S,12′R)-6-chloro-7′-(2-(3-fluoro-1-azetidinyl)ethoxy)-11′,12′-dimethyl-3,4-dihydro-2H,15′H-spiro[naphthalene-1,22′-[20]oxa[13]thia[1,14]diazatetracyclo[14.7.2.0^3,6.0^19,24]pentacosa [8,16,18,24]tetraen]-15′-one 13′,13′-dioxide] | – |
| 0.284 nM | 152 nM | – | C[C@@H]1[C@@H](C)C/C=C/[C@H](OCCNC2COC2)[C@@H]2CC[C@H]2CN2C[C@@]3(CCCc4cc(Cl)ccc43)COc3ccc(cc32)C(=O)NS1(=O)=O [Example 522, (1S,3′R,6′R,7′S,8′E,11′5,12′R)-6-chloro-11′,12′-dimethyl-7′-(2-(3-oxetanylamino)ethoxy)-3,4-dihydro-2H,15′H-spiro[naphthalene-1,22′-[20]oxa[13]thia[1,14]diazatetracyclo[14.7.2.0^3,6.0^19,24]pentacosa [8,16,18,24]tetraen]-15′-one 13′,13′-dioxide 2,2,2-trifluoroacetic Acid] | – |
| – | 111 nM | 0.275 nM | C[C@@H]1CC/C=C/[C@H](OCCN2CCOCC2)[C@@H]2CC[C@H]2CN2C[C@@]3(CCCc4cc(Cl)ccc43)COc3ccc(cc32)C(=O)NS1(=O)=O [Example 418, (1S,3′R,6′R,7′S,8′E,12′R)-6-chloro-12′-methyl-7′-(2-(4-morpholinyl)ethoxy)-3,4-dihydro-2H,15′H-spiro[naphthalene-1,22′-[20]oxa[13]thia[1,14]diazatetracyclo[14.7.2.0^3,6.0^19,24]pentacosa [8,16,18,24]tetraen]-15′-one 13′,13′-dioxide] | – |
| 0.141 nM | 24200 nM | – | C[C@H]1C/C=C/[C@H](OCC(=O)O)[C@@H]2CC[C@H]2CN2C[C@@]3(CCCc4cc(Cl)ccc43)COc3ccc(cc32)C(=O)NS(=O)(=O)[C@H]1C [Example 739, (((1S,3′R,6′R,7′S,8′E,11′S,12′S)-6-chloro-11′,12′-dimethyl-13′,13′-dioxido-15′-oxo-3,4-dihydro-2H-spiro[naphthalene-1,22′-[20]oxa[13]thia [1,14]diazatetracyclo[14.7.2.0^3,6.0^19,24]pentacosa[8,16,18,24]tetraen]-7′-yl)oxy)acetic Acid] | – |
| – | 2370 nM | 1.11 nM | CN(C)C(=O)CCO[C@@H]1/C=C/CCCS(=O)(=O)NC(=O)c2ccc3c(c2)N(C[C@@H]2CC[C@H]21)C[C@@]1(CCCc2cc(Cl)ccc21)CO3 [Example 211, 3-(((1S,3′R,6′R,7′R,8′E)-6-chloro-13′,13′-dioxido-15′-oxo-3,4-dihydro-2H-spiro[naphthalene-1,22′-[20]oxa[13]thia[1,14]diazatetracyclo[14.7.2.0^3,6.0^19,24]pentacosa [8,16,18,24]tetraen]-7′-yl)oxy)-N,N-dimethylpropanamide] | – |
| – | – | 7.88 nM | C[C@@H]1/C=C/[C@@H](O)[C@@H]2CC[C@H]2CN2C[C@@]3(CCCc4cc(Cl)ccc43)COc3ccc(cc32)C(=O)NS(=O)(=O)C[C@@H]1C (single isomer, unassigned) [Example 1062] | IC50 ([2]; 16 h incubation): 12600 nM |
| 0.291 nM | 166 nM | – | C[C@@H]1[C@@H](C)C/C=C/[C@H](OCCN2C[C@H]3C[C@@H]2CO3)[C@@H]2CC[C@H]2CN2C[C@@]3(CCCc4cc(Cl)ccc43)COc3ccc(cc32)C(=O)NS1(=O)=O [Example 521, (1S,3′R,6′R,7′S,8′E,11′S,12′R)-6-chloro-11′,12′-dimethyl-7′-(2-((1R,4R)-2-oxa-5-azabicyclo[2.2.1]hept-5-yl)ethoxy)-3,4-dihydro-2H,15′H-spiro[naphthalene-1,22′-[20]oxa[13]thia[1,14]diazatetracyclo[14.7.2.0^3,6.0^19,24]pentacosa [8,16,18,24]tetraen]-15′-one 13′,13′-dioxide 2,2,2-trifluoroacetic Acid] | – |
| 0.884 nM | 947 nM | – | CC[C@@H]1CC/C=C/[C@H](O)[C@@H]2CC[C@H]2CN2C[C@@]3(CCCc4cc(Cl)ccc43)COc3cc(F)c(cc32)C(=O)NS1(=O)=O [Example 655, (1S,3′R,6′R,7′S,8′E,12′R)-6-chloro-12′-ethyl-17′-fluoro-7′-hydroxy-3,4-dihydro-2H,15′H-spiro[naphthalene-1,22′-[20]oxa[13]thia[1,14]diazatetracyclo[14.7.2.0^3,6.0^19,24]pentacosa [8,16,18,24]tetraen]-15′-one 13′,13′-dioxide] | – |

| SMILES | IC50 [1, 3] | IC50 [2, 4] | IC50 [1, 5] | further results |
| --- | --- | --- | --- | --- |
| CC(C)OC(=O)CC1C(C)CC=CC(O)C2CCC2CN2CC3(CCCc4cc(Cl)ccc43)COc3ccc(cc32)C(=O)NS1(=O)=O (single isomer, unassigned) [Example 566] | 0.384 nM | – | – | IC50 ([2]; 16 h): 282 nM |
